This is an account of results in ChEMBL document CHEMBL1140810, “Conversion of an MMP-potent scaffold to an MMP-selective HER-2 sheddase inhibitor via scaffold hybridization and subtle P1' permutations” (Bioorg Med Chem Lett, 2008).

The target of experiment [1] is T1, Disintegrin and metalloproteinase domain-containing protein 10 (Homo sapiens, UniProt O14672).
T1 sequence (O14672 whole entry): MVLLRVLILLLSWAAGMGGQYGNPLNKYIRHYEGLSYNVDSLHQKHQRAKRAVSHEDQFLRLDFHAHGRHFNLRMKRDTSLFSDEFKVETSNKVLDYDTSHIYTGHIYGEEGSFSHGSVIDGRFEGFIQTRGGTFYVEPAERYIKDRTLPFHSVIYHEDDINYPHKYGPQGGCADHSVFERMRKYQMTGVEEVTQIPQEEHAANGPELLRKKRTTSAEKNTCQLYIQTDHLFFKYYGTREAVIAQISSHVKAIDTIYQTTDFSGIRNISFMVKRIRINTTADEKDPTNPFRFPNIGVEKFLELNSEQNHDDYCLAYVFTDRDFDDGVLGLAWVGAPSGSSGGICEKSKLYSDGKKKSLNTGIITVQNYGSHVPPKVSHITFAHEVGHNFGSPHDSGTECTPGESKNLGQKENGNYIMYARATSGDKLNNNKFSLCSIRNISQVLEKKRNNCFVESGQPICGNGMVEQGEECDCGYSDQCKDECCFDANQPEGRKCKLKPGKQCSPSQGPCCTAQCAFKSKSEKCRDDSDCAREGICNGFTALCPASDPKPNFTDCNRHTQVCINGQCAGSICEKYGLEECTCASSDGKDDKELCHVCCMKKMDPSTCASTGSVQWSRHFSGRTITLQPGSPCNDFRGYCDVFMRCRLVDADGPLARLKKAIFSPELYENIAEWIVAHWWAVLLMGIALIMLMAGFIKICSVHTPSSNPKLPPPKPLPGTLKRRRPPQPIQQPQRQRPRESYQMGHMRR
The experiment in a line: Inhibition of HER2 sheddase in human BT474 cells. In kind it is cell-based, BT-474.

For a further experiment, the target named is T2, Interstitial collagenase (Homo sapiens, UniProt P03956).
T2 sequence (P03956 whole entry): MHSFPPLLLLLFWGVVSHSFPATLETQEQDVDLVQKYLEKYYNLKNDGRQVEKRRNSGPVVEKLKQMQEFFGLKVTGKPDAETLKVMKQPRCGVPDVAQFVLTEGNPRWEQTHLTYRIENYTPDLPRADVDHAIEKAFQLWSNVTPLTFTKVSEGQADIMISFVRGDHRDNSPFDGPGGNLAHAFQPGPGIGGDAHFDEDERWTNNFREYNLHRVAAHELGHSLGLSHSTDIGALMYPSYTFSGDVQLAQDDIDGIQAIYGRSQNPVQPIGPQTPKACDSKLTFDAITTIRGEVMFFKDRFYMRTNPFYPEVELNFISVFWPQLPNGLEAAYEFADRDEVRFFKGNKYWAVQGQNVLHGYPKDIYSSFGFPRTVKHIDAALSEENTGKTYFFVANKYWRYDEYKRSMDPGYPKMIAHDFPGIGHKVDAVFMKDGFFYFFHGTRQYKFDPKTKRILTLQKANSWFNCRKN

The target in experiment [2] is T1, Disintegrin and metalloproteinase domain-containing protein 10.
For the next experiment, the target named is Stromelysin-1 (Homo sapiens, UniProt P08254). The experiment in a line: Inhibition of MMP3.
Sequence of Stromelysin-1 (P08254 whole entry): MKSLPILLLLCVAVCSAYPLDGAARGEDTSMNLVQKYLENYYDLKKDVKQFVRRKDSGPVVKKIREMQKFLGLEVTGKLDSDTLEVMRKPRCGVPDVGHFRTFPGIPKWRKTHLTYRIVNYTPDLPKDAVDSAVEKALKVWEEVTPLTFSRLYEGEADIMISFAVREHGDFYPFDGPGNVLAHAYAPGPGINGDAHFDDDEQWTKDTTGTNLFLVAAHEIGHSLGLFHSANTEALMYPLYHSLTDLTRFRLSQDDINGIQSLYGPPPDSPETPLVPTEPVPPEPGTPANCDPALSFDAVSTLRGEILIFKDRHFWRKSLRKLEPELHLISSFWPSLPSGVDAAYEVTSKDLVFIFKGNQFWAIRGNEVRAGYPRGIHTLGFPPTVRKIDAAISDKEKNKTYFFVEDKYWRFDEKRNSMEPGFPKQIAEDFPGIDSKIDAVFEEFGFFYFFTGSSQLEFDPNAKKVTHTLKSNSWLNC
The target in experiment [3] is Matrix metalloproteinase-9 (Homo sapiens, UniProt P14780). The experiment in a line: Inhibition of MMP9.
Sequence of Matrix metalloproteinase-9 (P14780 whole entry): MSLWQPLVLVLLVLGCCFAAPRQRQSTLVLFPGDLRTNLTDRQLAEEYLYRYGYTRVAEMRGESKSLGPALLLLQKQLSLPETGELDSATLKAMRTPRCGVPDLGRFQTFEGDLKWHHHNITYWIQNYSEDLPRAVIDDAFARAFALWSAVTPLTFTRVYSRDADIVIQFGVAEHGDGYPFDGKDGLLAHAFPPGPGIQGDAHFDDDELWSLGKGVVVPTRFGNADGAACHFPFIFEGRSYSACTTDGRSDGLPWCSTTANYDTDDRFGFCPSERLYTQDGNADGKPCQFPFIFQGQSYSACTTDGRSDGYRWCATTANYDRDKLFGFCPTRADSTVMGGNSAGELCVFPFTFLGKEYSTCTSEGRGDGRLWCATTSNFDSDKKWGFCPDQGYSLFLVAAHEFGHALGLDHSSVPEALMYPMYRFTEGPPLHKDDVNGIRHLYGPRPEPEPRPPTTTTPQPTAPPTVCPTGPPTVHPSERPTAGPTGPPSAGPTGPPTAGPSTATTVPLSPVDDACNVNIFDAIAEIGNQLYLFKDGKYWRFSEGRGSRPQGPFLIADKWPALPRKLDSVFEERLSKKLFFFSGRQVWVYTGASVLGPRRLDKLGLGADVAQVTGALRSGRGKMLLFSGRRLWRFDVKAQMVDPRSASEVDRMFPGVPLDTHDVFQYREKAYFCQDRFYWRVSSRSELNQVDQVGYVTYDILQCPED
Experiment [4] concerns the target 72 kDa type IV collagenase (Homo sapiens, UniProt P08253).

Sequence of 72 kDa type IV collagenase (P08253 whole entry): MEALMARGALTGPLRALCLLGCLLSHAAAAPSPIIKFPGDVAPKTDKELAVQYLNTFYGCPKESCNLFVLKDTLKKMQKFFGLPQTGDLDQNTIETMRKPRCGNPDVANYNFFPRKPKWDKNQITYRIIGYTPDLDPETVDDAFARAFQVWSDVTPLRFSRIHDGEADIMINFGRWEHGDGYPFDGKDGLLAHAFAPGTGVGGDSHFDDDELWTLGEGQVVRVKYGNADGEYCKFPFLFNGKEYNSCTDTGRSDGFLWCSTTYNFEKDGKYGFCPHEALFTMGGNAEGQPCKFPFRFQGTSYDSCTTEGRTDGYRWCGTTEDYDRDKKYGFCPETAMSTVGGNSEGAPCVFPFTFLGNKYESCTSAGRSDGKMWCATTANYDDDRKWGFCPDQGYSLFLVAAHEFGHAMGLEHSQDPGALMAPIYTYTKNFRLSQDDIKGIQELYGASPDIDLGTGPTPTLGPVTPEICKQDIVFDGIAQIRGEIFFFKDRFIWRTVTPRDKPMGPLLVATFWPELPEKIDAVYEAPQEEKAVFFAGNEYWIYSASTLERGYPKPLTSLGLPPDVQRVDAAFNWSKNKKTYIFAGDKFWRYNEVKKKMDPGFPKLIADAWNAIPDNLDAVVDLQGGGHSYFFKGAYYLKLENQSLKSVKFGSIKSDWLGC

One may read the IC50 as the concentration that gives 50% inhibition. A high value points to lower potency. On to `O=C(O[C@H]1CCOC1)N1CCC(CS(=O)(=O)N2CCN(c3ccccc3)CC2)(C(=O)NO)CC1`, for which the 50% inhibitory concentration (IC50) in experiment [1] was 13 nM; against Interstitial collagenase, 774 nM; in experiment [2] it was 15 nM; against Stromelysin-1, 925 nM; in experiment [3], 78 nM; in experiment [4], 13 nM.
